For 13 compounds, inhibition results are on record in ChEMBL document CHEMBL3045243, “Synthesis of novel 3-chloro-1-(5H-dibenz[b,f]azepine-5yl)propan-1-one derivatives with antioxidant activity” (Med Chem Res, 2011).

Structures are written as SMILES.

What all share (type): functional
Assay [1] is described as follows: Antioxidant activity assessed as inhibition of CuSO4-induced human LDL oxidation at 25 uM at 6 hr by thibarbuteric acid assay.
A short description of assay [2]: Antioxidant activity assessed as inhibition of CuSO4-induced human LDL oxidation at 10 uM at 6 hr by thibarbuteric acid assay.
A short description of assay [3]: Antioxidant activity assessed as inhibition of CuSO4-induced human LDL oxidation at 25 uM at 4 hr by thibarbuteric acid assay.
The nature of assay [4]: Antioxidant activity assessed as inhibition of CuSO4-induced human LDL oxidation at 10 uM at 4 hr by thibarbuteric acid assay.
Assay [5] can be described thus: Antioxidant activity assessed as inhibition of CuSO4-induced human LDL oxidation at 25 uM at 2 hr by thibarbuteric acid assay.
The nature of assay [6]: Antioxidant activity assessed as inhibition of CuSO4-induced human LDL oxidation at 10 uM at 2 hr by thibarbuteric acid assay.
A short description of assay [7]: Antioxidant activity assessed as inhibition of linoleic acid oxidation at 25 uM up to 180 min by beta-carotene bleaching assay.
Assay [8] can be described thus: Antioxidant activity assessed as inhibition of linoleic acid oxidation at 10 uM up to 180 min by beta-carotene bleaching assay.

As for `C[C@H](NCCC(=O)N1c2ccccc2C=Cc2ccccc21)C(=O)O`, the inhibition in assay [1] is 12.1%; in assay [2], 11%; in assay [3], 10.1%; in assay [4], 9.75%; in assay [5], 9.14%; in assay [6] it was 8.92%. Further, the values for the inhibition in assay [7] and in assay [8] were 15.4% and 10%, respectively.

For the compound `O=C1O[C@H]([C@@H](O)CO)C(O)=C1O`, the inhibition in assay [1] was found to be 92.2%; in assay [2], 84.4%; in assay [3], 85.2%; in assay [4], 81.3%; in assay [5], 79.2%; in assay [6] it was 74.3%. Besides, the values for the inhibition in assay [7] and in assay [8] were 90.4% and 87.2%, respectively.

As for `O=C(O)[C@H](Cc1ccc(O)cc1)NCCC(=O)N1c2ccccc2C=Cc2ccccc21`, the inhibition in assay [1] was 83.5%; in assay [2], 78.7%; in assay [3], 79.6%; in assay [4], 75.5%; in assay [5], 73.6%; in assay [6], 70.5%. Moreover, the results for the inhibition in assay [7] and in assay [8] were 89.1% and 86.8%, respectively.

Turning to `O=C(O)[C@H](CS)NCCC(=O)N1c2ccccc2C=Cc2ccccc21`, the inhibition in assay [1] stood at 75.8%; in assay [2] it was 72.5%; in assay [3] it was 73.4%; in assay [4] it was 69.8%; in assay [5], 70.5%; in assay [6] it was 67.3%. The inhibition in assay [7] stood at 84.4%; in assay [8] it was 82.2%.

As for `O=C(O)[C@H](Cc1c[nH]cn1)NCCC(=O)N1c2ccccc2C=Cc2ccccc21`, the inhibition in assay [1] came out at 72.7%; in assay [2], 68.5%; in assay [3] it was 70.1%; in assay [4] it was 65.7%; in assay [5] it was 68.3%; in assay [6], 56.3%. The inhibition came out at 86.8% in assay [7] and 85% in assay [8].

In the case of `O=C(O)[C@H](Cc1ccccc1)NCCC(=O)N1c2ccccc2C=Cc2ccccc21`, the inhibition in assay [1] worked out at 18.7%; in assay [2] it was 13.5%; in assay [3], 16.4%; in assay [4], 11.2%; in assay [5], 13.1%; in assay [6] it was 9.98%. The inhibition in assay [7] was 8.3%; in assay [8], 5.39%.

Regarding `O=C(O)[C@@H]1CCCN1CCC(=O)N1c2ccccc2C=Cc2ccccc21`, the inhibition is 17.4% in assay [1]; 15.4% in assay [2]; 14.1% in assay [3]; 13.6% in assay [4]; 13.7% in assay [5]; 11.9% in assay [6]. The inhibition in assay [7] came out at 6.15%; in assay [8], 4.22%.

Regarding `O=C(O)[C@H](Cc1c[nH]c2ccccc12)NCCC(=O)N1c2ccccc2C=Cc2ccccc21`, the inhibition in assay [1] was found to be 75.2%; in assay [2], 73.5%; in assay [3] it was 73.2%; in assay [4], 70.8%; in assay [5], 71.2%; in assay [6] it was 67.9%. For the same compound, the inhibition in assay [7] worked out at 85.9%; in assay [8], 83.6%.

Regarding `O=C(CCCl)N1c2ccccc2C=Cc2ccccc21`, the inhibition turned out to be 12.4% in assay [1]; 8.87% in assay [2]; 9.77% in assay [3]; 6.87% in assay [4]; 7.43% in assay [5]; 5.34% in assay [6]. Besides, the inhibition in assay [7] came out at 4.24%; in assay [8], 2.89%.

`C[C@@H](O)[C@H](NCCC(=O)N1c2ccccc2C=Cc2ccccc21)C(=O)O`: the inhibition in assay [1] turned out to be 61.6%; in assay [2] it was 57%; in assay [3] it was 59.6%; in assay [4], 55.5%; in assay [5], 56.2%; in assay [6], 53.5%. In addition, the inhibition in assay [7] amounted to 76%; in assay [8], 53.8%.

As for `O=C(O)CNCCC(=O)N1c2ccccc2C=Cc2ccccc21`, the inhibition in assay [1] turned out to be 10.3%; in assay [2] it was 10.2%; in assay [3], 7.92%; in assay [4] it was 7.95%; in assay [5], 8.24%; in assay [6] it was 6.71%. In addition, the inhibition in assay [7] came to 8.8%; in assay [8], 2.96%.

`O=C(O)[C@@H]1C(O)CCN1CCC(=O)N1c2ccccc2C=Cc2ccccc21` (some centres undefined): the inhibition in assay [1] is 77.1%; in assay [2] it was 75.8%; in assay [3] it was 75.5%; in assay [4], 73.5%; in assay [5], 73.7%; in assay [6] it was 69.7%. The results for the inhibition in assay [7] and in assay [8] were 88.4% and 85.4%, respectively.

Take `CSCC[C@H](NCCC(=O)N1c2ccccc2C=Cc2ccccc21)C(=O)O`: the inhibition was 61.6% in assay [1]; 59.7% in assay [2]; 59.8% in assay [3]; 57.9% in assay [4]; 55% in assay [5]; 54.6% in assay [6]. In addition, the inhibition in assay [7] is 67.3%; in assay [8], 52.6%.
